Measurements: ChEMBL document CHEMBL1125620, “Synthesis and biological evaluation of a series of substituted N-alkoxyimides and -amides as potential atypical antipsychotic agents” (J Med Chem, 1991)

How the values were obtained:
Mus musculus = test: Inhibition of apomorphine induced mouse climbing, administered intraperitoneally; type: functional; settings: ip
[1] = biological target: T1, 5-hydroxytryptamine receptor 1A (Rattus norvegicus, UniProt P19327); test: Affinity for 5-hydroxytryptamine 1A receptor labeled with [3H]8-OH-DPAT radioligand in hippocampus tissue; type: tissue-based
T1 sequence (P19327 whole entry): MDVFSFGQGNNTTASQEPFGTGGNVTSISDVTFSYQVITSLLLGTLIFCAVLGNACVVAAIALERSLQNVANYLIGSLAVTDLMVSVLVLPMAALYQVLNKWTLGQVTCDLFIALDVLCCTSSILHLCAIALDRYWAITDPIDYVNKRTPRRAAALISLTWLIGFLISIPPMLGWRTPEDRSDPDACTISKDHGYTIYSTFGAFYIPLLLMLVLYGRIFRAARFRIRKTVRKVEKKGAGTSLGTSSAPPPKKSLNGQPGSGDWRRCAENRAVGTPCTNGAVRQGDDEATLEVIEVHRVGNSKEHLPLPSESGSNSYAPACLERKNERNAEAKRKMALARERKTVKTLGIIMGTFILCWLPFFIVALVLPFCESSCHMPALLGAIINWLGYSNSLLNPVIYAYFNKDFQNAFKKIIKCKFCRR

[2] = biological target: Serotonin 2 (5-HT2) receptor (Rattus norvegicus, UniProt P30994+P08909+P14842); test: Compound was measured for affinity at 5-hydroxytryptamine 2 receptor in rat cortical by [3H]spiroperidol displacement.
D(2) dopamine receptor = D(2) dopamine receptor (Rattus norvegicus, UniProt P61169); test: Compound was measured for affinity at Dopamine receptor D2 labeled with [3H]spiroperidol radioligand in striatum tissue; type: tissue-based
Sequence of D(2) dopamine receptor (P61169 whole entry): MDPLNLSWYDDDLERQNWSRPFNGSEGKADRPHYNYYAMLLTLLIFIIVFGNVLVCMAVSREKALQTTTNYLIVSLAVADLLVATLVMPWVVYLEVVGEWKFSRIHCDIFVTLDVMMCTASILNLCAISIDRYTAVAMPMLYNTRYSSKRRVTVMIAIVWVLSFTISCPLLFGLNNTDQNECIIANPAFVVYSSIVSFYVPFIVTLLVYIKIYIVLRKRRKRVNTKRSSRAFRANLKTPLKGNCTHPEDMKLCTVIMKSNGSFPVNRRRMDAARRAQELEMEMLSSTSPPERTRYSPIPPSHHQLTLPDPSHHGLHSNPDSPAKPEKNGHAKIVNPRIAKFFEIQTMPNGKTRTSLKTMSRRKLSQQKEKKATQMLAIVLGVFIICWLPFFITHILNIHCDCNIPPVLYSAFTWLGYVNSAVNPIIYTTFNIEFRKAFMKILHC

Rattus norvegicus [3] = test: In vivo inhibition of apomorphine induced stereotypy in rat by the compound administered intraperitoneally; type: functional; settings: ip
D(1A) dopamine receptor = D(1A) dopamine receptor (Rattus norvegicus, UniProt P18901); test: compound was measured as affinity for dopamine receptor D1 labeled with [3H]-SCH- 23390 radioligand in striatum tissue; type: tissue-based
Sequence of D(1A) dopamine receptor (P18901 whole entry): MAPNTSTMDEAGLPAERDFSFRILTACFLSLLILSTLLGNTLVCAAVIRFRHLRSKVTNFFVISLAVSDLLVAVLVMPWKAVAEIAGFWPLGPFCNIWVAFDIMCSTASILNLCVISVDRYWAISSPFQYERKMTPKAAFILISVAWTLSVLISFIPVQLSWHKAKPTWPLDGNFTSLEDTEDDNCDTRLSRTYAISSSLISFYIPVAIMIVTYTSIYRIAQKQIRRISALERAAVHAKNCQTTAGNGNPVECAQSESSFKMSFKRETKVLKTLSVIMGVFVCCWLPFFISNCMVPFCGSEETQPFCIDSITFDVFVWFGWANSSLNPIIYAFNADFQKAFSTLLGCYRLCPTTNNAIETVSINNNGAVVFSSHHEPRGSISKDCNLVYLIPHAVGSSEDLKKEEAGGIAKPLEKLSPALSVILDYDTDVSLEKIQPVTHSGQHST

Rattus norvegicus [4] = test: In vivo activity administered intraperitoneally was determined by social interaction in rat at 1.0 mg/kg
[5] = biological target: 5-hydroxytryptamine receptor 1B (Rattus norvegicus, UniProt P28564); test: compound was measured for affinity against 5-hydroxytryptamine 1B receptor labelled with [3H]5-HT radioligand in striatum tissue; type: tissue-based
Sequence of 5-hydroxytryptamine receptor 1B (P28564 whole entry): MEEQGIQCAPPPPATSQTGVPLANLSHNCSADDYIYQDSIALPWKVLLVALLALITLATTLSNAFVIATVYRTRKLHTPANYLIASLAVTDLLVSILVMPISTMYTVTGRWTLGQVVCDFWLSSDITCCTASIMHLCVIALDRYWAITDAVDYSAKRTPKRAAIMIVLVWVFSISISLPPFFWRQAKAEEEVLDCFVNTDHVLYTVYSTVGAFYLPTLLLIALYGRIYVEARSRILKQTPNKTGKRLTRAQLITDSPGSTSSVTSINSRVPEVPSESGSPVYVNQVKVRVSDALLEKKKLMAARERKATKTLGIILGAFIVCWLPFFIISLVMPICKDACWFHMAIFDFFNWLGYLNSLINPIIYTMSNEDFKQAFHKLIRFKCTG

Rattus norvegicus [6] = test: In vivo inhibition of amphetamine induced stereotypy in rat by the compound administered intraperitoneally at […]; type: functional
Rattus norvegicus [7] = test: In vivo activity administered intraperitoneally was determined by pole climb escape failures in rat; type: functional; settings: ip
Rattus norvegicus [8] = test: In vivo activity administered orally was determined by intracranial self stimulation in rat; type: functional; settings: po
Rattus norvegicus [9] = test: In vivo activity administered intraperitoneally was determined by induction of catalepsy in rat at 30 mg/kg
Rattus norvegicus [10] = test: In vivo activity was measured by the pole climb avoidance in rat; type: functional
[11] = biological target: T2, Alpha adrenergic receptor 1A and 1B (Rattus norvegicus, UniProt P15823+P43140); test: compound was measured as affinity for Alpha-1 adrenergic receptor labeled with [3H]WB-4101 radioligand in whole brain tissue
T2 sequence (P15823 whole entry): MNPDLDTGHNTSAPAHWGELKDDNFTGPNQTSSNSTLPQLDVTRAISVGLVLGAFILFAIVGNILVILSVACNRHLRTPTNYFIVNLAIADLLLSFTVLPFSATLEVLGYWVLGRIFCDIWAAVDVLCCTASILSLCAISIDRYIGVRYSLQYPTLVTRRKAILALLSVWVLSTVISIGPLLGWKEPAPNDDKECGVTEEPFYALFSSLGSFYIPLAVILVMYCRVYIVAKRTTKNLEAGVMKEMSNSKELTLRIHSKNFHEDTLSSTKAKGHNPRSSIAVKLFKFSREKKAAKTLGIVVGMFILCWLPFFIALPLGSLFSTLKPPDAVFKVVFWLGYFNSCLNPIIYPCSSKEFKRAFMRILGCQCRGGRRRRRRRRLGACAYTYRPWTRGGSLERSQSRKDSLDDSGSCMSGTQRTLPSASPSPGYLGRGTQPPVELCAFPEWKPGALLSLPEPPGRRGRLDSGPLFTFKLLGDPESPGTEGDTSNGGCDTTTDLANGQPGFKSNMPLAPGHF
T2 sequence (P43140 whole entry): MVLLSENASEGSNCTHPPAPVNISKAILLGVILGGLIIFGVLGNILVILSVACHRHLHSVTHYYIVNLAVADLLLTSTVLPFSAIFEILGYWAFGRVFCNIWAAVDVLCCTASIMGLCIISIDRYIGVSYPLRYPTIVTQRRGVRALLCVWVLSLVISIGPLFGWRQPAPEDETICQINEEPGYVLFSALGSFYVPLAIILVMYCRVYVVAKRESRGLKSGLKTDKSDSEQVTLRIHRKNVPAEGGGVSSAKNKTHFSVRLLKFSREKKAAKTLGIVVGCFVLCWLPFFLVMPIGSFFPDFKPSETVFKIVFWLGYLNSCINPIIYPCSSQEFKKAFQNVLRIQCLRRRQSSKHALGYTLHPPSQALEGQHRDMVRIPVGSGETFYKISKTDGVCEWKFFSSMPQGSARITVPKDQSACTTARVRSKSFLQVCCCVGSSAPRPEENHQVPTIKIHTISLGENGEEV

Rattus norvegicus [12] = test: In vivo activity administered intraperitoneally was determined by induction of catalepsy in rat at 40 mg/kg
[13] = biological target: Sigma non-opioid intracellular receptor 1 (Rattus norvegicus, UniProt Q9R0C9); test: compound was measured as affinity for sigma receptor labeled with [3H]-SKF- […] radioligand in slide-mounted slices
Sequence of Sigma non-opioid intracellular receptor 1 (Q9R0C9 whole entry): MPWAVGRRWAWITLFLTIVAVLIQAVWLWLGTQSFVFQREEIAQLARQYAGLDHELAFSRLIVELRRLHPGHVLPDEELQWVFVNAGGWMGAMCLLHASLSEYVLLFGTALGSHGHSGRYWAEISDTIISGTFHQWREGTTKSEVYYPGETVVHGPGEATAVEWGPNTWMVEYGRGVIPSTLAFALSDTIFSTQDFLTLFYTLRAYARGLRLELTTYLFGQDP

Rattus norvegicus [14] = test: In vivo activity administered intraperitoneally was determined by intracranial self stimulation in rat; type: functional; settings: ip
Rattus norvegicus [15] = test: In vivo activity administered intraperitoneally was determined by pole climb avoidance in rat; type: functional; settings: ip
Rattus norvegicus [16] = test: In vivo activity was measured by the intracranial self stimulation in rat; type: functional
Rattus norvegicus [17] = test: In vivo activity administered intraperitoneally was determined by induction of catalepsy in rat; type: functional; settings: ip
Rattus norvegicus [18] = test: In vivo inhibition of amphetamine induced stereotypy in rat by the compound administered intraperitoneally; type: functional; settings: ip
Rattus norvegicus [19] = test: Activity administered intraperitoneally was determined by social interaction of rat at […]; type: functional
Rattus norvegicus [20] = test: In vivo activity administered intraperitoneally was determined by induction of catalepsy in rat at […]; type: functional
Rattus norvegicus [21] = test: In vivo activity administered intraperitoneally was determined by social interaction of rat at […]; type: functional

| Compound | ED50 (Mus musculus) [mg/kg] | IC50 [1] [nM] | IC50 [2] [nM] | other results |
| --- | --- | --- | --- | --- |
| CSc1cccc(N2CCN(CCCON3C(=O)c4ccccc4C3=O)CC2)c1 | > 20 | – | – | – |
| O=C1CC2(CCCC2)CC(=O)N1OCCCN1CCN(c2cccc(C(F)(F)F)c2)CC1 | > 20 | 30 | – | – |
| COc1ccccc1N1CCN(CCCON2C(=O)CC3(CCCC3)CC2=O)CC1 | 11 | 110 | 1190 | – |
| O=C1c2ccccc2C(=O)N1OCCCN1CCN(c2nsc3ccccc23)CC1 | > 20 | > 20000 | – | – |
| O=C1c2ccccc2C(=O)N1OCCCN1CCN(c2cccc(Cl)c2)CC1 | > 20 | – | – | – |
| COc1ccccc1N1CCN(CCCON2C(=O)CC3(CCCC3)CC2O)CC1 (stereo unspecified) | > 20 | 60 | – | – |
| O=C1CC2(CCCC2)CC(=O)N1OCCCN1CCN(C2=NS(=O)(=O)c3ccccc32)CC1 | > 20 | > 20000 | > 20000 | – |
| O=C1c2ccccc2C(=O)N1OCCCN1CCN(c2cccc(C(F)(F)F)c2)CC1 | > 20 | – | – | IC50 (D(2) dopamine receptor): > 20000 nM |
| Cc1ccccc1N1CCN(CCCON2C(=O)c3ccccc3C2=O)CC1 | > 20 | – | – | – |
| O=C1CC2(CCCC2)CC(=O)N1OCCCN1CCN(c2cccc(Cl)c2)CC1 | > 20 | 40 | – | – |
| Cc1cccc(N2CCN(CCCON3C(=O)CC4(CCCC4)CC3=O)CC2)c1 | 26.5 | 90 | 390 | – |
| O=C1CC2(CCCC2)CC(=O)N1OCCCN1CCN(c2ccccc2Cl)CC1 | > 20 | 220 | – | – |
| COc1ccccc1N1CCN(CCCON2C(=O)c3ccccc3C2=O)CC1 | > 20 | 6900 | – | IC50 (D(2) dopamine receptor): > 20000 nM |
| CSc1cccc(N2CCN(CCCON3C(=O)CC4(CCCC4)CC3=O)CC2)c1 | > 20 | 50 | – | – |
| Cc1cccc(N2CCN(CCCON3C(=O)c4ccccc4C3=O)CC2)c1 | > 20 | – | – | – |
| O=C1CC2(CCCC2)CC(=O)N1OCCN1CCN(c2nsc3ccccc23)CC1 | > 20 | 970 | 240 | – |

| Compound | ED50 (Mus musculus) [mg/kg] | IC50 [1] [nM] | IC50 [2] [nM] | other results |
| --- | --- | --- | --- | --- |
| O=C1CC2(CCCC2)CCN1OCCCN1CCN(c2nsc3ccccc23)CC1 | 17.8 | 30 | 10 | – |
| COc1ccccc1N1CCN(CCCON2CCC3(CCCC3)CC2=O)CC1 | > 20 | 70 | 2700 | – |
| O=C1CC2(CCCC2)CC(=O)N1OCCN1CCN(c2ncccn2)CC1 | > 20 | – | – | – |
| O=C1CC2(CCCC2)CC(=O)N1OCCCN1CCN(c2ncccn2)CC1 | > 20 | 380 | – | – |
| O=C1CC2(CCCC2)CC(O)N1OCCCN1CCN(c2nsc3ccccc23)CC1 (stereo unspecified) | > 20 | 80 | 10 | – |
| O=C1c2ccccc2C(=O)N1OCCCN1CCN(c2ccc3ccccc3n2)CC1 | > 20 | – | – | – |
| O=C1CC2(CCCC2)CC(=O)N1OCCCN1CCN(c2nsc3ccccc23)CC1 | 5.7 | 110 | 20 | ED50 (Rattus norvegicus [3]): 35.4 mg/kg; IC50 (D(1A) dopamine receptor): 6600 nM; Increase (Rattus norvegicus [4]): 24%; IC50 [5]: 5530 nM; Inhibition (Rattus norvegicus [6]): 17%; ED50 (Rattus norvegicus [7]): > 20 mg/kg; ED50 (Rattus norvegicus [8]): 12.5 mg/kg; Catalepsy (Rattus norvegicus [9]): 33%; ED50 (Rattus norvegicus [10]): 2.5 mg/kg; IC50 [11]: 10 nM; Catalepsy (Rattus norvegicus [12]): 83%; IC50 [13]: 1100 nM |
| COc1ccccc1N1CCN(CCON2C(=O)CC3(CCCC3)CC2=O)CC1 | > 20 | 370 | 3200 | – |
| O=C1CC2(CCCC2)CC(=O)N1OCCCN1CCN(c2nc3ccccc3s2)CC1 | > 20 | 2200 | 8100 | – |
| Cc1cccc(N2CCN(CCCON3C(=O)CC4(CCCC4)CC3=O)CC2)c1C | 39.7 | 170 | 250 | – |
| O=C1CC2(CCCC2)CC(=O)N1OCCCN1CCN(c2ccc3ccccc3n2)CC1 | > 20 | – | – | – |
| CN1CCN(C2=Nc3cc(Cl)ccc3Nc3ccccc32)CC1 [CLOZAPINE] | 8.1 | – | – | ED50 (Rattus norvegicus [14]): 9.1 mg/kg; ED50 (Rattus norvegicus [15]): 13.1 mg/kg; ED50 (Rattus norvegicus [7]): > 80 mg/kg |
| O=C(CCCN1CCC(O)(c2ccc(Cl)cc2)CC1)c1ccc(F)cc1 [HALOPERIDOL] | 0.25 | – | – | ED50 (Rattus norvegicus [16]): 0.077 mg/kg; ED50 (Rattus norvegicus [17]): 0.659 mg/kg; ED50 (Rattus norvegicus [3]): 0.31 mg/kg; ED50 (Rattus norvegicus [15]): 0.53 mg/kg; ED50 (Rattus norvegicus [18]): 0.215 mg/kg; ED50 (Rattus norvegicus [7]): 7.3 mg/kg |
| Cc1nc2n(c(=O)c1CCN1CCC(c3noc4cc(F)ccc34)CC1)CCCC2 [RISPERIDONE] | 0.06 | – | – | ED50 (Rattus norvegicus [17]): 5.7 mg/kg; ED50 (Rattus norvegicus [14]): 0.13 mg/kg; ED50 (Rattus norvegicus [3]): 3.2 mg/kg; ED50 (Rattus norvegicus [15]): 0.48 mg/kg; ED50 (Rattus norvegicus [7]): 1.3 mg/kg; Inhibition (Rattus norvegicus [19]): 27% |
| O=C1CC2(CCCC2)CC(=O)N1CCCCN1CCN(c2nsc3ccccc23)CC1 [TIOSPIRONE] | 0.84 | – | – | ED50 (Rattus norvegicus [14]): 0.124 mg/kg; ED50 (Rattus norvegicus [3]): 3.7 mg/kg; ED50 (Rattus norvegicus [15]): 0.93 mg/kg; Inhibition (Rattus norvegicus [20]): 67%; ED50 (Rattus norvegicus [7]): 2.77 mg/kg; Inhibition (Rattus norvegicus [21]): 34% |
